Earlier results, collected in patent US6632839B2, “Capsicum based disinfectant and sterilizant” (priority 1997, dated 2003).
Like-named read-outs stand apart in the source and are kept apart here.

Conditions: for Solubility in water: water / cold water

For `COc1cc(CNC(=O)CCCC/C=C/C(C)C)ccc1O` [Capsaicin, N-vanillyl-8-methyl-6-(E)-noneamide], the “Solubility in alcohol, fats, oils” value is listed as “very soluble in fats, oils and alcohol”, the “Solubility in alcohol, fats, oils” value (listed as capsaicin) is listed as “soluble in alcohol” and the Solubility in water is listed as “sparingly soluble in water”. For the same compound, the Solubility in water (listed as capsaicin) was “insoluble in cold water”.
